This passage reports TGI and GI50 results from PubChem BioAssay (NCI).

Several values for one entry are separate records, joined by “and”; a condition that tells them apart may be missing. Equal entries are not always repeated.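 A five-concentration, 48-hour dose response in 96-well plates underlies each endpoint, interpolated linearly between surrounding concentrations. GI50 marks 50% less growth. TGI: concentration producing complete growth inhibition.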 Bounds are passed on as bounds.

Test systems include NCI-H460 lung; MDA-MB-231 breast; SK-MEL-5 melanoma; SNB-19 CNS; OVCAR-8 ovarian; MOLT-4 leukemia; SW-620 colon; SK-OV-3 ovarian; NCI-H23 lung; HCC-2998 colon.
Test in all cases: inhibition of tumour cell growth, NCI panel, 48 h

With `CC(=O)OCC1OC(n2c(-c3ccc(Cl)cc3)ccc(C#N)c2=S)C(OC(C)=O)C(OC(C)=O)C1OC(C)=O` (stereo unspecified), the TGI with NCI-H460 lung is above 100 µM; in the assay with MDA-MB-231 breast it was 47.1 µM and > 100 µM; in the assay with SK-MEL-5 melanoma it was above 100 µM; with SNB-19 CNS it was 58.4 µM and > 100 µM; with OVCAR-8 ovarian, above 100 µM; with MOLT-4 leukemia, above 100 µM. The TGI with SW-620 colon is above 100 µM; with SK-OV-3 ovarian, 44.9 µM and > 100 µM; with NCI-H23 lung, above 100 µM; in the assay with HCC-2998 colon it was above 100 µM. Moreover, the GI50 was 10.2 µM and 42.9 µM in the assay with MDA-MB-231 breast; > 66.1 µM and 32.2 µM in the assay on SK-MEL-5 melanoma; 14.8 µM and 42.2 µM in the assay on SNB-19 CNS; 16.4 µM and 34.9 µM in the assay on OVCAR-8 ovarian; 16.4 µM and 47.9 µM with SK-OV-3 ovarian; 29.3 µM and > 100 µM in the assay with NCI-H23 lung.
For `C=C(C)C(=O)O[C@H]1C[C@@]23O[C@@H]2CCC(=C[C@H]2OC(=O)C(=C)[C@H]12)COC3O` (stereo partly specified), the TGI was above 100 µM in the assay with NCI-H460 lung; above 100 µM in the assay on MDA-MB-231 breast; above 100 µM in the assay on SK-MEL-5 melanoma; above 100 µM in the assay on SNB-19 CNS; above 100 µM with OVCAR-8 ovarian; 92.2 µM in the assay on MOLT-4 leukemia. Further, the TGI with SW-620 colon was 36.4 µM; with SK-OV-3 ovarian, above 100 µM; with NCI-H23 lung, above 100 µM; with HCC-2998 colon, above 100 µM.
For `COc1cc(-c2cc3ncccc3c3nc(N)c4cccnc4c23)cc(OC)c1OC`, the GI50 in the assay with NCI-H460 lung was 0.408 µM; in the assay on MDA-MB-231 breast it was 1.25 µM; in the assay with SK-MEL-5 melanoma it was 0.296 µM; with SNB-19 CNS it was 0.737 µM; in the assay on OVCAR-8 ovarian, 0.756 µM; in the assay with MOLT-4 leukemia, 0.604 µM. Besides, the GI50 in the assay with SW-620 colon is 0.468 µM; in the assay on SK-OV-3 ovarian, 0.538 µM; in the assay on NCI-H23 lung, 1.28 µM; in the assay with HCC-2998 colon, 1.66 µM. Moreover, the TGI with NCI-H460 lung was 16.8 µM; with MDA-MB-231 breast, above 100 µM; in the assay with SK-MEL-5 melanoma, 1.99 µM; in the assay on SNB-19 CNS, above 100 µM; with OVCAR-8 ovarian, 46 µM; in the assay on MOLT-4 leukemia, 8.05 µM. Besides, the TGI in the assay with SW-620 colon is above 100 µM; in the assay on SK-OV-3 ovarian, 72.5 µM; with NCI-H23 lung it was 51.2 µM; in the assay on HCC-2998 colon, above 100 µM.
As to `CCOC(=O)c1sc(-c2ccc(OS(=O)(=O)c3ccc(Br)s3)c(C=O)c2)nc1C`, the GI50 in the assay with NCI-H460 lung is 22.7 µM; with MDA-MB-231 breast, 2.75 µM; in the assay with SK-MEL-5 melanoma, 1.74 µM; in the assay on SNB-19 CNS, 3.17 µM; with OVCAR-8 ovarian it was 3.26 µM; in the assay on MOLT-4 leukemia, 2.73 µM. Besides, the GI50 in the assay on SW-620 colon is 3.28 µM; with SK-OV-3 ovarian, 36.4 µM; with NCI-H23 lung, 3.37 µM; with HCC-2998 colon, 13.3 µM. Also, the TGI with NCI-H460 lung came out at 58.6 µM; with MDA-MB-231 breast it was 10.1 µM; in the assay on SK-MEL-5 melanoma, 3.18 µM; in the assay on SNB-19 CNS it was 12 µM; in the assay with OVCAR-8 ovarian, 16.5 µM; with MOLT-4 leukemia, 8.3 µM. In addition, the TGI in the assay with SW-620 colon is 12.8 µM; with SK-OV-3 ovarian, 97.1 µM; with NCI-H23 lung, 13.7 µM; with HCC-2998 colon, 29.3 µM.
For the compound `COc1cc(/C=C2\C(=O)Nc3cc(C)c(O)cc32)cc(OC)c1OC`, the GI50 with NCI-H460 lung was 3.2 µM; in the assay on MDA-MB-231 breast, 3.25 µM; in the assay with SK-MEL-5 melanoma, 2.52 µM; in the assay with SNB-19 CNS it was 10.6 µM; with OVCAR-8 ovarian, 7.33 µM; in the assay with MOLT-4 leukemia, 3.32 µM. The GI50 was 4.08 µM in the assay on SW-620 colon, 7.34 µM in the assay with SK-OV-3 ovarian, 3.61 µM in the assay on NCI-H23 lung and 5.18 µM with HCC-2998 colon. The TGI with NCI-H460 lung was 11.7 µM; with MDA-MB-231 breast it was 23.1 µM; with SK-MEL-5 melanoma, 9.17 µM; in the assay with SNB-19 CNS, 34.3 µM; in the assay on OVCAR-8 ovarian, above 67.3 µM; in the assay with MOLT-4 leukemia, 16.7 µM. In addition, the TGI with SW-620 colon came out at 15.9 µM; with SK-OV-3 ovarian, 54.1 µM; in the assay on NCI-H23 lung it was 23.7 µM; in the assay on HCC-2998 colon, 17.5 µM.
Consider `Cc1cnc(NC(=O)Nc2cc(Br)c(C)cc2OC[C@@H]2CNCCO2)cn1`, for which the GI50 is 1.47 µM and 0.928 µM in the assay with NCI-H460 lung; 2.96 µM and 1.48 µM with MDA-MB-231 breast; 1.43 µM and 1.09 µM in the assay on SK-MEL-5 melanoma; 2.52 µM and 1.42 µM in the assay with SNB-19 CNS; 0.666 µM and 0.664 µM in the assay with OVCAR-8 ovarian; 0.445 µM and 0.368 µM in the assay on MOLT-4 leukemia. The GI50 in the assay with SW-620 colon was 3.68 µM and 3.28 µM; with SK-OV-3 ovarian it was 0.916 µM and 0.474 µM; in the assay with NCI-H23 lung, 0.466 µM and 0.548 µM; in the assay on HCC-2998 colon, 0.468 µM and 0.493 µM. Further, the TGI in the assay with NCI-H460 lung is > 10 µM and 5.79 µM; with MDA-MB-231 breast it was > 10 µM and 7.39 µM; with SK-MEL-5 melanoma it was 4.22 µM and 2.92 µM; in the assay on SNB-19 CNS, > 10 µM and 14.3 µM; with OVCAR-8 ovarian, > 10 µM and 12.8 µM; in the assay on MOLT-4 leukemia, > 10 µM and 3.9 µM. In addition, the TGI in the assay with SW-620 colon is > 10 µM and 13.4 µM; with SK-OV-3 ovarian, > 10 µM and 12.3 µM; in the assay on NCI-H23 lung, > 10 µM and 9.42 µM; with HCC-2998 colon, > 10 µM and 5.28 µM.
With `CC(=O)O[C@H]1CC[C@@]2(C)C(=CC[C@H]3[C@@H]4CC[C@H](c5cc(C(F)(F)F)n(C(C)=O)n5)[C@@]4(C)CC[C@@H]32)C1`, the TGI worked out at 12.6 µM in the assay with NCI-H460 lung; 14.8 µM in the assay with MDA-MB-231 breast; 15.3 µM in the assay with SK-MEL-5 melanoma; 24 µM in the assay on SNB-19 CNS; 24.8 µM in the assay with OVCAR-8 ovarian; 8.39 µM with MOLT-4 leukemia. Moreover, the TGI came to 49 µM in the assay on SW-620 colon, 25.4 µM in the assay on SK-OV-3 ovarian, 28.6 µM in the assay with NCI-H23 lung and 27.3 µM in the assay with HCC-2998 colon.
As to `CCc1cccc(C)c1NC(=O)c1sc2nc3c(cc2c1N)CCCCC3`, the GI50 with NCI-H460 lung is 3.52 µM; in the assay on MDA-MB-231 breast it was 4.35 µM; with SK-MEL-5 melanoma, 2.97 µM; in the assay on SNB-19 CNS it was 4.07 µM; in the assay with OVCAR-8 ovarian, 3.72 µM; in the assay with MOLT-4 leukemia, 4.56 µM. Besides, the GI50 with SW-620 colon was 3.76 µM; in the assay with SK-OV-3 ovarian it was 5.24 µM; with NCI-H23 lung, 4.67 µM; with HCC-2998 colon it was 12.4 µM. The TGI in the assay with NCI-H460 lung is 26.6 µM; in the assay on MDA-MB-231 breast it was above 100 µM; with SK-MEL-5 melanoma, 13.8 µM; in the assay on SNB-19 CNS it was above 100 µM; with OVCAR-8 ovarian, above 100 µM; in the assay with MOLT-4 leukemia it was above 100 µM. Moreover, the TGI in the assay with SW-620 colon was above 100 µM; in the assay on SK-OV-3 ovarian, above 100 µM; in the assay on NCI-H23 lung, above 100 µM; in the assay on HCC-2998 colon it was 85.8 µM.
